# Data reported in patent publication US9320760B2, “Compositions and methods of use of compounds to increase cancer patient survival time” (BioNumerik Pharmaceuticals, Inc., priority 2008, dated 2016).
# Assays:
# [1] = tested on: breast cancer cell lines; experiment: cytotoxicity study in combination with cisplatin, breast cancer cell lines; format: cell-based, human; settings: Tavocept in combination with cisplatin vs cisplatin only controls
# [2] = tested on: patients with advanced stage (IIIB/IV) non-small cell lung carcinoma (NSCLC), including the adenocarcinoma sub-type; experiment: U.S. Phase II NSCLC Clinical Trial (dose-dense docetaxel + cisplatin with or without Tavocept); format: in vivo, human
# Experimental: Darbepoetin alfa (200 μg; subcutaneous administration) was administered on day one of the chemotherapy cycle and pegfilgrastim (6 mg subcutaneous administration) was administered on day two of the chemotherapy cycle if the patient's hemoglobin levels were ≦11 g/dL. The aforementioned chemotherapy cycle was repeated every two weeks, for up to a total of six cycles.
# [3] = FIG. 13, Tavocept arm versus non-Tavocept arm
# [4] = FIG. 14, adenocarcinoma patients, Tavocept vs non-Tavocept arm
# [5] = FIG. 15, Tavocept arm versus non-Tavocept arm
structure (smiles),measurement,setting,value
"O=S(=O)([O-])CCSSCCS(=O)(=O)[O-].[Na+].[Na+] [Tavocept™, disodium 2,2′-dithio-bis-ethane sulfonate]",cell death,[1],increase in cell death
same,median patient survival (time to death),"[2]; FIG. 12, NSCLC incl. adenocarcinoma, Tavocept arm (10.74 months non-Tavocept arm), 95% confidence limit",11.66 months
same,"hazard ratio, survival","[2]; FIG. 12, NSCLC incl. adenocarcinoma, Tavocept vs non-Tavocept arm",0.750
same,increase in patient survival,"[2]; FIG. 12, NSCLC, Tavocept arm versus non-Tavocept arm",0.92 month
same,patient progression-free survival (PFS),"[2]; FIG. 13, Tavocept arm (9.25% non-Tavocept arm), 95% confidence interval",18.7%
same,overall patient one-year survival (OS) rate,"[2]; FIG. 13, Tavocept arm (39.5% non-Tavocept arm), 95% confidence interval",50.7%
same,increase in overall patient one-year survival (OS) rates,[2]; [3],11.2%
same,increase in patient progression-free survival (PFS),[2]; [3],9.5%
same,"median patient survival (time to death), adenocarcinoma","[2]; FIG. 14, adenocarcinoma patients, Tavocept arm (9.10 months non-Tavocept arm), 95% confidence limit",15.64 months
same,"increase in patient survival, adenocarcinoma","[2]; FIG. 14, adenocarcinoma patients, Tavocept arm versus non-Tavocept arm",6.54 months
same,"increase in patient survival, adenocarcinoma","[2]; FIG. 14, adenocarcinoma patients, Tavocept arm versus non-Tavocept arm, listed as Tavocept",~6.5 months
same,"hazard ratio, survival, adenocarcinoma",[2]; [4],0.601
same,"reduction in the patient mortality rate, adenocarcinoma",[2]; [4],40%
same,reduction in dehydration (Grade 3 and Grade 4 treatment-related adverse events),[2]; [5],50%
same,reduction in hypomagnesaemia (Grade 3 and Grade 4 treatment-related adverse events),[2]; [5],100%
same,reduction in nausea (Grade 3 and Grade 4 treatment-related adverse events),[2]; [5],38.5%
same,reduction in vomiting (Grade 3 and Grade 4 treatment-related adverse events),[2]; [5],71.5%
same,"increase in median survival time, adenocarcinoma patients",[2]; adenocarcinoma patients in the Tavocept arm,approximately 198 days
